For two compounds, Kd results are on record in article PMC4045209, “The two common polymorphic forms of human NRH-quinone oxidoreductase 2 (NQO2) have different biochemical properties” (Febs Letters, 2014).

Where two headings read alike, the source gives them in different places.

The target of this assay is T1, NRH-quinone oxidoreductase 2 (NQO2-F47) (Homo sapiens, UniProt P16083, L47F).
T1 sequence (P16083 1-231 L47F): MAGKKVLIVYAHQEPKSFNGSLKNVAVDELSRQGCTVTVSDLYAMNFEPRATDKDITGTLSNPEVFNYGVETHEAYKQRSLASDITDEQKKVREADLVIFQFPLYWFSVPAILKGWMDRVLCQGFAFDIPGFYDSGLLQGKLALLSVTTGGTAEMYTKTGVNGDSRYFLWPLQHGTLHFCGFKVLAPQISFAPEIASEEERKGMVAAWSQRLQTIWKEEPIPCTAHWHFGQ
The experiment in a line: thermal scanning fluorimetry KD,app (FAD fluorescence). The format is binding.

Regarding `O=c1oc2ccccc2c(O)c1Cc1c(O)c2ccccc2oc1=O` [dicoumarol], where the note is “read-out: Kd”, the Kd was 0.0337 ± 0.0026 mM.

In turn, `NC(=O)c1cccnc1` [nicotinamide] came in with a Kd of 14.4 ± 1.1 mM.
